The test system of one assay is SR-B1. The assay is described as follows: HFD-induced hepatic SR-B1 expression. Type of assay: in vivo. As to conditions: HFD mice; for SR-B1: CTL 100 (Table 8); for SR-B1 expression: Control 100%. The procedure:
In the experiment, C57BL/6J male mice (21-22 g), after fasting, were fed an HFD as a model of hyperlipidemia for 8 weeks. During the 2 month experiments, mice fasted for one night before the experiment was changed from a standard diet (STD) to an HFD and then the mice were randomly divided into 13 groups, including a protection group, 2 control and 10 treatment groups. Six mice were used in each group. […] Liver from the protection group supplemented with KMUP-1 HCl (1 mg/kg/day) were used to determine the HMG CoA reductase expression. Each group of mice had free access to drinking water from week 1 to week 14. Tap water was used to normalize mineral nutrition.
For the expression of SR-B1, HMGR, PPARγ and ROCK II, isolated liver tissues were cut into small chips and placed into an extraction buffer (Tris 10 mM, pH 7.0, NaCl 140 mM, PMSF 2 mM, DTT 5 mM, NP-40 0.5%, pepstatin A 0.05 mM and leupeptin 0.2 mM) for hepatic protein extraction, and centrifuged at 20,000×g for 30 minutes. The obtained protein extract was boiled to a ratio of 4:1 with a sample buffer (Tris 100 mM, pH 6.8, glycerol 20%, SDS 4% and bromophenol blue 0.2%). Electrophoresis was performed using 10% SDS-polyacrylamide gel (1 hour, 100 V, 40 mA, 20 μg protein per lane).
Separated proteins, after 3 repeated centrifugations to discard up-layer tissue lipid in purity, were transferred to PVDF membranes treated with 5% fat-free milk powder to block the nonspecific IgGs (90 minutes, 100 V) and incubated for 1 hour with specific protein antibody. The blot was then incubated with anti-mouse or anti-goat IgG linked to alkaline phosphatase (1:1000) for 1 hour.

The subject of the next assay is IL-10. The assay is described as follows: IHC staining of IL-10 in epididymal fat pads. Type of assay: in vivo, mice. The settings on record: HFD 14 weeks, KMUP-1 2.5 mg/kg/day, Control 31. The procedure:
For IHC of MMP-9/TNFα, HSL/p-HSL/ATGL and eNOS/IL-10, antigen retrieval of de-paraffinated sections was performed in Dako target retrieval solution, pH 9.0, in a vegetable steamer followed by the quenching of endogenous peroxidase activity with 3.0% H2O2 in methanol. Sections were then incubated with specific primary antibodies overnight at 4° C. in a humidified chamber. The antibodies used included rabbit polyclonal anti-eNOS (1:50 dilution) (Abcam, Cambridge, UK) or rabbit monoclonal anti-cleaved caspase-3 (1:50 dilution) (Cell Signaling, U.S.A.). The sections were then examined using a DAKO REAL EnVision™ Detection System kit (DAKO, Carpinteria, Calif., U.S.A.) and counterstained with hematoxylin. Images were obtained through a Nikon Eclipse TE200-S microscope.

In a further assay the test system is LXRα. The assay is described as follows: LXRα expression in HepG2 cells. Type of assay: cell-based. As to conditions: 10^−9-10^−5 M. On the procedure:
The HepG2 hepatoma cell line was purchased from the American Type Culture Collection (ATCC, Manassas, Va., U.S.A.). Cells were cultured in Dulbecco's Modified Eagle's Medium (DMEM). The culture media was supplemented with 5% heat-inactivated FBS, penicillin (100 U/mL) and streptomycin (100 μg/mL). Cells were grown in a humidified atmosphere containing 5% CO2 at 37° C., in which the oxygen tension in the incubator was held at 140 mmHg (20% O2, v/v; normoxic conditions). […] Then the targeted drugs solution was incubated with the cells for 24 hours, followed by protein extraction. The targeted drugs were added to the […].
HepG2 cells were treated with various concentrations of targeted drugs for 24 hours. Reactions were terminated by washing twice with cold PBS, and the cells were then harvested. Proteins in the whole-cell lysate were homogenized in an ice-cold lysis buffer and a protease inhibitor (Sigma-Aldrich, St. Louis, Mo., U.S.A.). The homogenate was centrifuged at 90,000×g for 15 minutes at 4° C., and supernatant was recovered as the total cellular protein. […]

The subject of another assay is LDLRs. The experiment in a line: IHC staining of LDLRs in livers of HFD mice. Type of assay: in vivo. The settings on record: HFD animals, protection and treatment groups.
The test system of another assay is fatty liver. The assay is described as follows: Gross morphology and H&E staining of liver of HFD mice. Type of assay: in vivo. On the procedure: Mice liver and epididymal fat pads were cut and soaked in formalin, dehydrated through graded alcohols and embedded in paraffin. Specimens of liver tissues and epididymal fat pads fixed with formalin (4%) were embedded in paraffin for one hour at 4° C., cut into 4-μm-thick sections, and subjected to H&E staining before examination by light microscope.

As to `Cn1c(=O)c2c(ncn2CCN2CCN(c3ccccc3Cl)CC2)n(C)c1=O` [KMUP-1, 7-[2-[4-(2-chlorophenyl)piperazinyl]ethyl]-1,3-dimethylxanthine], the SR-B1 is 29% in the assay with SR-B1 (Protection group) and 59% in the assay on SR-B1 (treatment 2.5 mg/200 mL drink). Also, the SR-B1 expression in the assay with SR-B1 (drinking KMUP-1, Protection group) is reported as 30%; in the assay with SR-B1 (drinking KMUP-1, Treatment group) it was 59%. Besides, in the assay on IL-10, the “Immunorespons percentages, IL-10” value was 56%. Further, the LXRα expression entry in the assay on LXRα is reported as “concentration-dependently increased”. For the same compound, in the assay on LDLRs, the “hepatic LDLRs (IHC staining)” value was “increased”. For the same compound, in the assay on fatty liver (drinking 2.5 mg/200 ml water, protective group), the “Fatty liver (gross morphology)” value is on record as “markedly decreased”. In the assay on fatty liver (oral 2.5 mg/kg, last 6 weeks/14 weeks), the “fat globules and Mallory's hyaline bodies (H&E staining of liver)” value is listed as “reduced”.
